Experiments:
[1] = system: Stx17 phosphorylation (Stx17^pS02) by TBK1; experiment: Western blot of Stx17 phosphorylation at Ser-202 in HeLa cells; type: cell-based, human
[2] = system: LDH sequestration in autophagosomes, HeLa cells; experiment: LDH (lactate dehydrogenase) sequestration assay; type: cell-based, human; settings: WT HeLa cells, EBSS 2 h in presence of bafilomycin A1; 3-methyladenine 10 mM as positive control (FIG. 7N,O)

Structure (SMILES): CC(=O)N[C@H]1C(O)O[C@H](CO)[C@@H](O)[C@@H]1O[C@H](C)C(=O)N[C@@H](C)C(=O)N[C@H](CCC(=O)O)C(N)=O (mixture of isomers) [MDP, muramyl-dipeptide]
- Stx17^pS02 band response to agonists of TBK1 ([1]; HeLa cells, Western blot (FIG. 8H), band also detectable in resting cells): responsive

Structure (SMILES): Cn1cnc(N)c2ncnc1-2 [3MA, 3-methyladenine]
- LDH (bulk autophagy cargo) sequestration in autophagosomes [2]: reduction in cargo sequestration

Structure (SMILES): O=C(NCCCNc1nc(Nc2cccc(NC(=O)N3CCCC3)c2)ncc1I)c1cccs1 [BX795]
- Stx17 phosphorylation (Stx17^pS02) ([1]; cells stimulated with LPS, HeLa WT or TBK1 KO cells, Western blot (FIG. 8I)): inhibited Stx17 phosphorylation
- baseline Stx17^pS02 levels ([1]; unstimulated cells, Western blot (FIG. 8I)): reduced the low baseline levels

From patent US11878018B1, “Phosphorylation of Syntaxin 17 by TBK1 controls autophagy initiation” (priority 2018, dated 2024)
